Results: ChEMBL document CHEMBL1201862, “PubChem BioAssay data set” (2004)
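Cells were grown in 96-well plates and exposed to each compound for 48 hours at five concentrations; endpoints were interpolated linearly between bracketing concentrations, or set to the highest concentration if not reached. At the GI50, growth is halved.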 The source made the active and inactive calls. Rule as the data show it: active = GI50 up to about 1.1 µM and inactive = higher.

What was measured:
Assay in all cases: NCI tumour cell line growth inhibition, 48 h
A498 = tested on: A498
SF-295 = tested on: SF-295
SK-MEL-2 = tested on: SK-MEL-2
DU-145 = tested on: DU-145
NCI-H23 = tested on: NCI-H23
NCI-H522 = tested on: NCI-H522
HCC 2998 = tested on: HCC 2998
SW-620 = tested on: SW-620
UACC-257 = tested on: UACC-257
MDA-MB-435 = tested on: MDA-MB-435
BT-549 = tested on: BT-549
M14 = tested on: M14
T47D = tested on: T47D
MOLT-4 = tested on: MOLT-4
SF-268 = tested on: SF-268
ACHN = tested on: ACHN
SNB-75 = tested on: SNB-75
786-0 = tested on: 786-0
RXF 393 = tested on: RXF 393

Measured: GI50

NC(=S)SCCC(=O)O
inactive: A498 > 100 µM | SF-295 > 100 µM | SK-MEL-2 > 100 µM | DU-145 > 100 µM | NCI-H23 > 100 µM | NCI-H522 > 100 µM | HCC 2998 > 100 µM | SW-620 > 100 µM | UACC-257 > 100 µM | MDA-MB-435 > 100 µM | BT-549 > 100 µM | M14 > 100 µM | T47D 43.2 µM | MOLT-4 > 100 µM | SF-268 > 100 µM | ACHN > 100 µM | SNB-75 > 100 µM | 786-0 > 100 µM

CCC1=[N+](CC)CCN1CC
inactive: A498 > 100 µM | SF-295 > 100 µM | SK-MEL-2 > 100 µM | DU-145 > 100 µM | NCI-H23 > 100 µM | NCI-H522 > 100 µM | HCC 2998 > 100 µM | SW-620 > 100 µM | UACC-257 > 100 µM | MDA-MB-435 > 100 µM | BT-549 > 100 µM | M14 > 100 µM | RXF 393 > 100 µM | T47D > 100 µM | MOLT-4 > 100 µM | SF-268 > 100 µM | ACHN > 100 µM | SNB-75 > 100 µM | 786-0 > 100 µM

C=C1C(=O)OC2C1C(=O)C/C(C)=C/CCC1(C)OC21 (stereo unspecified)
inactive: A498 23.1 µM | SF-295 52.7 µM | SK-MEL-2 18.5 µM | DU-145 17.4 µM | NCI-H23 19.5 µM | NCI-H522 3.63 µM | HCC 2998 18.9 µM | SW-620 16.4 µM | UACC-257 20.1 µM | MDA-MB-435 15.4 µM | BT-549 23.3 µM | M14 15.6 µM | RXF 393 15.4 µM | T47D 11.2 µM | MOLT-4 17.3 µM | SF-268 19.6 µM | ACHN 10.5 µM | SNB-75 25.4 µM | 786-0 14 µM

CC(C)(C)SC1=CCC[C@@H](P(=O)(c2ccccc2)c2ccccc2)[C@@H]2CCC[C@@H]12
inactive: A498 15.8 µM | SF-295 15.1 µM | SK-MEL-2 16.5 µM | DU-145 17.2 µM | NCI-H23 17.2 µM | NCI-H522 15.7 µM | HCC 2998 16.2 µM | SW-620 27 µM | UACC-257 17 µM | MDA-MB-435 15 µM | BT-549 17.8 µM | M14 15.3 µM | RXF 393 13.8 µM | T47D 14 µM | MOLT-4 16 µM | SF-268 17.8 µM | ACHN 16.5 µM | SNB-75 11.8 µM | 786-0 16.7 µM

COCn1c2ccc(OC(C)=O)cc2c2c(=O)oc(N(C)C)nc21
inactive: A498 > 100 µM | SF-295 > 100 µM | SK-MEL-2 > 100 µM | DU-145 > 100 µM | NCI-H23 > 100 µM | NCI-H522 > 100 µM | HCC 2998 > 100 µM | SW-620 > 100 µM | UACC-257 > 100 µM | MDA-MB-435 > 100 µM | BT-549 > 100 µM | M14 > 100 µM | RXF 393 > 100 µM | T47D > 100 µM | MOLT-4 > 100 µM | ACHN > 100 µM | SNB-75 > 100 µM | 786-0 > 100 µM

O=C(O)[C@@H]1CCC(=O)N1C(c1ccc2c(c1)OCO2)c1ccc2c(c1)OCO2
inactive: A498 > 100 µM | SF-295 > 100 µM | SK-MEL-2 > 100 µM | DU-145 > 100 µM | NCI-H23 > 100 µM | NCI-H522 > 100 µM | HCC 2998 > 100 µM | SW-620 > 100 µM | UACC-257 > 100 µM | MDA-MB-435 > 100 µM | BT-549 > 100 µM | M14 > 100 µM | T47D > 100 µM | MOLT-4 > 100 µM | SF-268 > 100 µM | ACHN > 100 µM | SNB-75 > 100 µM | 786-0 > 100 µM

O=c1oc2ccccc2cc1-c1cn2c(n1)sc1ccccc12
inactive: SF-295 > 100 µM | SK-MEL-2 > 100 µM | DU-145 > 100 µM | NCI-H23 > 100 µM | NCI-H522 26.1 µM | HCC 2998 > 100 µM | SW-620 > 100 µM | UACC-257 > 100 µM | MDA-MB-435 29.3 µM | BT-549 > 100 µM | M14 > 100 µM | RXF 393 > 100 µM | T47D > 100 µM | MOLT-4 > 100 µM | SF-268 52.6 µM | ACHN > 100 µM | SNB-75 > 100 µM | 786-0 > 100 µM

Cc1cc2nc(C#N)c(N3CCN(c4ccc([N+](=O)[O-])cc4)CC3)nc2cc1C
inactive: A498 > 75.2 µM | SF-295 > 50.5 µM | SK-MEL-2 > 100 µM | DU-145 > 100 µM | NCI-H23 > 64.9 µM | NCI-H522 > 54.1 µM | HCC 2998 > 100 µM | SW-620 > 100 µM | UACC-257 > 100 µM | MDA-MB-435 > 100 µM | BT-549 > 100 µM | M14 > 95.9 µM | RXF 393 > 72.9 µM | T47D 66.2 µM | SF-268 > 57.7 µM | ACHN > 71.3 µM | SNB-75 63.5 µM | 786-0 52.7 µM

S=C(N1CCN(c2ccc(Cl)c(Cl)c2)CC1)N1CCN(c2ccc(Cl)c(Cl)c2)CC1
inactive: SF-295 9.25 µM | SK-MEL-2 19.9 µM | DU-145 12.4 µM | NCI-H23 15.3 µM | NCI-H522 10.9 µM | HCC 2998 13.7 µM | SW-620 17.5 µM | UACC-257 17.1 µM | MDA-MB-435 15.4 µM | BT-549 16.2 µM | M14 15.6 µM | RXF 393 14.3 µM | T47D 7.94 µM | MOLT-4 6.18 µM | SF-268 14.4 µM | ACHN 14.4 µM | 786-0 10.8 µM

CCCNc1[nH]c(C(C)=O)c(N)c1C(=S)Nc1ccccc1
inactive: A498 27.4 µM | SF-295 43.3 µM | SK-MEL-2 9.2 µM | DU-145 54.7 µM | NCI-H23 41 µM | NCI-H522 4.15 µM | HCC 2998 > 100 µM | SW-620 > 100 µM | UACC-257 30.1 µM | MDA-MB-435 21 µM | BT-549 24.2 µM | M14 19.4 µM | RXF 393 20.4 µM | T47D 47.1 µM | MOLT-4 69.2 µM | SF-268 23.3 µM | ACHN 40.8 µM | SNB-75 37 µM | 786-0 26.4 µM

Cc1ccc2c(n1)NC(=O)C(Cc1ccccc1)(N=[N+]=[N-])C2=O (stereo unspecified)
inactive: A498 > 100 µM | SF-295 > 100 µM | DU-145 > 100 µM | NCI-H23 > 100 µM | NCI-H522 > 100 µM | HCC 2998 > 100 µM | SW-620 > 100 µM | UACC-257 > 100 µM | MDA-MB-435 > 100 µM | BT-549 > 100 µM | M14 > 100 µM | RXF 393 > 100 µM | T47D 67 µM | MOLT-4 > 100 µM | SF-268 > 100 µM | ACHN > 100 µM | 786-0 > 100 µM

N#Cc1c(-c2ccc([N+](=O)[O-])cc2)cc(-c2ccc(Nc3ccnc4cc(Cl)ccc34)cc2)[nH]c1=O
inactive: A498 > 100 µM | SF-295 > 100 µM | SK-MEL-2 > 100 µM | DU-145 > 100 µM | NCI-H23 93.3 µM | NCI-H522 > 100 µM | HCC 2998 > 100 µM | SW-620 > 100 µM | MDA-MB-435 > 100 µM | BT-549 > 100 µM | M14 > 100 µM | RXF 393 > 100 µM | T47D > 100 µM | MOLT-4 > 100 µM | SF-268 > 100 µM | ACHN > 100 µM | SNB-75 > 100 µM | 786-0 > 100 µM

Clc1cc(Cl)nc(Nc2ccc3c(c2)CCC3)n1
inactive: A498 31.3 µM | SF-295 48.5 µM | SK-MEL-2 45 µM | DU-145 61.2 µM | NCI-H23 39.6 µM | NCI-H522 2.54 µM | HCC 2998 16.4 µM | SW-620 46.6 µM | UACC-257 42 µM | MDA-MB-435 58.5 µM | BT-549 48.6 µM | M14 42.9 µM | T47D 69.3 µM | MOLT-4 13.8 µM | SF-268 44.8 µM | ACHN 35.1 µM | 786-0 39.1 µM

CC1CC[C@]2(C(=O)O)CCC3(C)C(=C2[C@H]1C)C=CC1[C@@]2(C)CC[C@H](O)C(C)(C)C2CC[C@]13C (stereo partly specified)
inactive: SF-295 19.9 µM | SK-MEL-2 64.9 µM | DU-145 16.6 µM | NCI-H23 24.9 µM | NCI-H522 23.1 µM | HCC 2998 29.7 µM | SW-620 45.9 µM | UACC-257 45 µM | MDA-MB-435 63.1 µM | BT-549 33.7 µM | M14 44.9 µM | RXF 393 3.8 µM | T47D 19.1 µM | MOLT-4 23.7 µM | SF-268 27.7 µM | ACHN 16.4 µM | SNB-75 24.5 µM | 786-0 29.9 µM

CN(C)C(=O)Oc1ccc[n+](C)c1 [PYRIDOSTIGMINE BROMIDE]
inactive: A498 > 100 µM | SF-295 > 100 µM | SK-MEL-2 > 100 µM | DU-145 > 100 µM | NCI-H23 > 100 µM | NCI-H522 > 100 µM | HCC 2998 > 100 µM | SW-620 > 100 µM | UACC-257 > 100 µM | MDA-MB-435 > 100 µM | BT-549 > 100 µM | RXF 393 > 100 µM | T47D > 100 µM | MOLT-4 > 100 µM | SF-268 > 100 µM | ACHN > 100 µM | SNB-75 > 100 µM | 786-0 > 100 µM
